Results on one molecule are retold here after patent publication US10351915B2 (Berg LLC, priority 2009, dated 2019).

Like-named read-outs stand apart in the source and are kept apart here.

The test system of one data set is HDFa cells. Kind of data set: Extracellular acidification rate (ECAR), SeaHorse XF analyzer. The data set is classed as cell-based, human. An excerpt: (SeaHorse Biosciences Inc, North Billerica, Mass.).
In this experiment, the OCR and extracellular acidification rate (ECAR) in normal cells lines were obtained in the presence and absence of CoQ10 to determine baseline values. It was observed that in its native nutrient environment, the basal OCR rates in normal cells lines are different, and are usually a function of the physiological roles of the cells in the body.
Table 127 below describes the ECAR values (mpH/min) in HDFa cells in the presence or absence of CoQ10 under normoxic and hypoxic conditions at 5.5 mM and 22 mM glucose.

The next data set concerns SDH Subunit B. Kind of data set: Western blot, Succinate Dehydrogenase B in mitochondrial preparations. The data set is classed as cell-based. As to conditions: mitochondrial preparations of cancer cells. As to the method:
The above blots were stripped by incubating for 30 minutes with methanol, followed by two 10 minute washes with TBS-T, then 30 minutes of incubation with Stripping buffer at 50 deg C., and followed by two washes with 100 ml or more of TBS-T for 30′ each. The blots were scanned in laser scanner to check for complete stripping. The blots were activated with methanol for 5 seconds, washed with water for 5 minutes, and TBST for 15 minutes. The blots were blocked for 1 hour with 5% blocking reagent in TBS-T at room temperature and then washed 3 times with TBS-T (1×-15′; 2×5′ each) and probed with the primary antibody for PKM2, SDHB or SDHC in 5% BSA in TBS-T by incubation overnight at 4 deg C. with gentle shaking. The primary antibody for SDHC (ABNOVA H00006391-M02; antimouse) was at 1:500 dilution. The primary antibody for SDHB was from Abcam ab4714-200; antimouse; at 1:1000 dilution. The primary antibody for Pyruvate Kinase M2 (PKM2) was from Novus Biologicals H00005315-D0IP; antirabbit; at 1:500 dilution. After incubation with primary antibodies, the membranes were washed 3 times with TBS-T (1×-15′; 2×5′ each) and probed with the secondary antibody (SDHB & C antimouse; and PKM2 antirabbit; 1:10,000 dilution) for 1 h on the orbital tilting shaker at room temperature. […]

The next data set concerns Hif1 alpha. As to the kind of experiment: Western blot, Hif1 alpha levels. In kind it is cell-based, human. Particulars: whole cell lysates of normal cells. As to the method:
The Actin blots were stripped by incubating for 30 minutes with methanol, followed by two 10 minute washes with TBS-T, then 30 minutes of incubation with Stripping buffer at 50 deg C., and followed by two washes with 100 ml or more of TBS-T for 30′ each. The blots were scanned in laser scanner to check for complete stripping. The blots were activated with methanol for 5 seconds, washed with water for 5 minutes, and TBST for 15 minutes. The blots were blocked for 1 hour with 5% blocking reagent in TBS-T at room temperature and then washed 3 times with TBS-T (1×-15′; 2×5′ each) and probed with the primary antibody for Hif 1 alpha, Caspase 3 or PDHB in 5% BSA (at 1:200 by incubation overnight at 4 deg C. with gentle shaking. The primary antibody for Hif 1 alpha (Abcam ab2185; antirabbit) was at 1:500 dilution in 5% BSA. The primary antibody for Caspase 3 (Santacruz sc7272; antirabbit) was at 1:200 dilution in 5% BSA. The primary antibody for Pyruvate Dehydrogenase beta (PDHB) (Novus Biologicals H00005162-M03; antimouse) was at 1:500 dilution in 5% BSA. After incubation with primary antibodies, the membranes were washed 3 times with TBS-T (1×-15′; 2×5′ each) and probed with the secondary antibody (PDHB antimouse; Hif 1a and Caspase 3 antirabbit; 1:10,000 dilution) for 1 h at room temperature. […]
Background: Immunoblotting shows a protein as a band on a membrane.

A further data set deals with pancreatic cancer. Particulars: intravenous.
The test system of another data set is a variety of cell types. As to the kind of experiment: Western blot analysis (Bcl-xL, Vimentin, oxidative phosphorylation and mitochondrial membrane proteins). The data set is classed as cell-based. Particulars: 50 or 100 μM Q10. As to the method:
Approximately 50 μg of protein were assayed per sample by immunoblotting. All treatments were run in triplicate with controls. […] The primary antibodies were incubated overnight at 4 degrees C. in a 5% BSA and TBST solution. Secondary antibodies were incubated for one hour at 4 degrees. All antibodies were purchased from Cell Signaling Technology. Antibodies were used at a ratio of 1:1000, with the exception of βActin at a ratio of 1:5000. Blots were developed and results were quantified using the NIH Java based densitometer analysis software Image J. All blots were also probed for and normalized to their respective βActin expression.
The first experiment processed and evaluated by Western blot and 2-D gel electrophoresis was carried out on the skin cancer cell line SKMEL-28.
A variety of cell types were evaluated by Western blot analysis against an antibody for Bcl-xL (FIG. 14), an antibody for Vimentin (FIG. 15), a series of antibodies for mitochondrial oxidative phosphorylation function (FIGS. 16-21) and against a series of antibodies related to mitochondrial membrane integrity (FIGS. 22-27).

For data set [1] the following is noted: cited from earlier work.

Turning to `COC1=C(OC)C(=O)C(C/C=C(\C)CC/C=C(\C)CC/C=C(\C)CC/C=C(\C)CC/C=C(\C)CC/C=C(\C)CC/C=C(\C)CC/C=C(\C)CC/C=C(\C)CCC=C(C)C)=C(C)C1=O` [Q10, Coenzyme Q10], in the data set on HDFa cells (high glucose hypoxic conditions), the ECAR entry is listed as “lowering of elevated ECAR”. Also, in the data set on HDFa cells (normoxic and hypoxic, 5.5 mM and 22 mM glucose), the ECAR values entry is “minimal influence on ECAR values”. Further, the SDH protein levels result with SDH Subunit B is on record as “increase SDH protein levels”. Besides, the “lower band of Hif1a” value in the data set with Hif1 alpha was “showed a decrease as well”. Besides, the animals alive result with pancreatic cancer (5 mg/kg (Group D), after 28 days) is listed as “most of the animals”; in the data set on pancreatic cancer (10 mg/kg (Group E), after 28 days) it was “most of the animals”; with pancreatic cancer (25 mg/kg (Group F), after 28 days), “most of the animals”; in the data set with pancreatic cancer (50 mg/kg (Group G), at 28 days) it was “all of the animals”. Moreover, the “levels of examined proteins” value in the data set on a variety of cell types was “several of the examined proteins were upregulated or downregulated”. Also, the solubility in water entry in data set [1] is recorded as “insoluble in water”.
